We go through 38 molecules from ChEMBL document CHEMBL4739717, “Methods of treating cartilage disorders through inhibition of clk and dyrk” (2020).

A short description of assay [1]: Induction of chondrogenesis in human MSC assessed as maximum activity at 10 nM incubated for 6 days by rhodamine B and Nile red staining based imaging analysis relative to control. In kind it is functional. The conditions noted are these: BMMSC, 144 h, time 6 day.
The nature of assay [2]: Effect on Wnt signaling pathway in human SW480 cells harbouring TCF/LEF luciferase reporter gene and SP5-Luc reporter gene incubated for 36 to 48 hrs by luminescence assay. The format is cell-based. (In general: A reporter such as luciferase makes a cellular process visible.)
In assay [3] the target is Dual specificity tyrosine-phosphorylation-regulated kinase 1A (Homo sapiens, UniProt Q13627). The assay can be described thus: Inhibition of recombinant DYRK1A (unknown origin) using Ser/Thr 18 peptide as substrate incubated for 1 hr in presence of ATP by FRET assay.
Assay [4] in a line: Induction of chondrogenesis in human MSC assessed as incubated for 6 days by rhodamine B and Nile red staining based imaging analysis. In kind it is functional. The conditions noted are these: bmmsc.

The Emax is the maximal effect, on the per cent scale that the assay sets. The EC50 is the concentration needed to bring the measured effect to its halfway point. For the molecule `CC(C)C(=O)Nc1cncc(-c2cc3c(-c4cc5c(-c6cccnc6)cccc5[nH]4)n[nH]c3cn2)c1`, the Emax at 0.01 µM in assay [1] amounted to 201%. In addition, the figures for the EC50 in assay [2], in assay [3] and in assay [4] were 0.275 µM, 0.077 µM and 0.01 µM, respectively.
In the case of `CN1CCN(c2nccc3[nH]c(-c4n[nH]c5cnc(-c6cncc(NC(=O)c7ccccc7)c6)cc45)cc23)CC1`, the Emax at 0.01 µM in assay [1] turned out to be 67%. The figures for the EC50 in assay [2], in assay [3] and in assay [4] were 2.8 µM, 0.004 µM and 0.01 µM, respectively.
On to `CN(C)CCNc1cc(F)cc(-c2cccc3[nH]c(-c4n[nH]c5ccc(-c6cncnc6)nc45)cc23)c1`, for which, in assay [1], the maximal response (Emax) at 0.01 µM was found to be 181%. For the same molecule, the 50% effective concentration (EC50) in assay [2] came to 0.42 µM; in assay [3] it was 0.075 µM; in assay [4] it was 0.01 µM.
As for `CS(=O)(=O)NCc1cc(F)cc(-c2nccc3[nH]c(-c4n[nH]c5cnc(-c6cncc(CNCC7CCCC7)c6)cc45)cc23)c1`, in assay [1], the maximum response (Emax) at 0.01 µM was 52.3%. Besides, the EC50 in assay [2] is over 10 µM; in assay [3] it was 0.027 µM; in assay [4] it was 0.03 µM.
As to `CCCCC(=O)Nc1cncc(-c2cc3c(-c4cc5c(-c6cc(F)cc(CNS(C)(=O)=O)c6)nccc5[nH]4)n[nH]c3cn2)c1`, the Emax at 0.01 µM in assay [1] came to 111%. The results for the half-maximal effective concentration (EC50) in assay [2], in assay [3] and in assay [4] were over 10 µM, 0.062 µM and 0.01 µM, respectively.
As for `Cc1ncc(-c2cnc3[nH]nc(-c4cc5c(-c6ccncc6)cncc5[nH]4)c3c2)n1C`, the Emax at 0.01 µM in assay [1] was 194%. The EC50 in assay [2] is over 10 µM; in assay [3] it was 0.028 µM; in assay [4] it was 0.01 µM.
`Nc1cncc(-c2ccc3[nH]nc(-c4nc5c(-c6ccccc6F)cccc5[nH]4)c3n2)c1`: in assay [1], the Emax at 0.01 µM came to 81.8%. In addition, the values for the EC50 in assay [2], in assay [3] and in assay [4] were 1.07 µM, 0.04 µM and 0.03 µM, respectively.
With `CN(C)Cc1cncc(-c2ccc3[nH]nc(-c4cc5c(-c6ccccc6F)cncc5[nH]4)c3n2)c1`, the maximal response (Emax) at 0.01 µM in assay [1] came to 50.6%. In addition, the half-maximal effective concentration (EC50) came out at 1.37 µM in assay [2], 0.069 µM in assay [3] and 0.03 µM in assay [4].
Consider `Cc1ccc(-c2cccc3[nH]c(-c4n[nH]c5ccc(-c6cncc(N)c6)nc45)nc23)s1`, for which, in assay [1], the maximum response (Emax) at 0.01 µM stood at 87.9%. The 50% effective concentration (EC50) turned out to be 0.0663 µM in assay [2], 0.02 µM in assay [3] and 0.01 µM in assay [4].
On the same counts, the results for `CN(C)CCNc1cc(F)cc(-c2cccc3[nH]c(-c4n[nH]c5cnc(-c6cncc(O)c6)cc45)cc23)c1` are 66.4%, 0.405 µM, 0.06 µM and 0.01 µM.
Regarding `Cc1ccc(-c2nccc3[nH]c(-c4n[nH]c5ccc(-c6cncc(N)c6)cc45)nc23)s1`, the Emax at 0.01 µM in assay [1] was 163%. For the same molecule, the concentration for a half-maximal effect (EC50) in assay [2] turned out to be 0.0019 µM; in assay [3] it was 0.058 µM; in assay [4], 2.7 µM.
As to `Cc1cn(-c2nccc3[nH]c(-c4n[nH]c5ccc(-c6cncc(NC(=O)C(C)(C)C)c6)nc45)nc23)cn1`, in assay [1], the Emax at 0.01 µM was found to be 69.7%. Further, the results for the EC50 in assay [2], in assay [3] and in assay [4] were over 10 µM, 0.039 µM and 0.03 µM, respectively.
Take `c1cncc(-c2ccc3[nH]nc(-c4cc5cccnc5[nH]4)c3n2)c1`: in assay [1], the maximal response (Emax) at 0.01 µM stood at 65.9%. Besides, the EC50 in assay [2] was over 10 µM; in assay [3] it was 0.024 µM; in assay [4] it was 0.01 µM.
The corresponding values for `c1cncc(-c2cc3c(-c4cc5cnccc5[nH]4)n[nH]c3cn2)c1` are 62%, 0.133 µM, 0.002 µM and 0.03 µM.
As to `CC(C)CC(=O)Nc1cncc(-c2cc3c(-c4cc5c(-c6cccs6)nccc5[nH]4)n[nH]c3cn2)c1`, the maximum response (Emax) at 0.01 µM in assay [1] is 81.4%. Further, the concentration giving a half-maximal response (EC50) came to 0.572 µM in assay [2], 0.044 µM in assay [3] and 0.01 µM in assay [4].
Consider `O=C(Nc1cncc(-c2ccc3[nH]nc(-c4nc5c(-c6ccc(Cl)s6)nccc5[nH]4)c3n2)c1)C1CCC1`, for which, in assay [1], the Emax at 0.01 µM stood at 60.2%. The EC50 in assay [2] is 0.823 µM; in assay [3], 0.092 µM; in assay [4], 0.03 µM.
On to `CCNCc1cncc(-c2ccc3[nH]nc(-c4cc5cccnc5[nH]4)c3n2)c1`, for which, in assay [1], the Emax at 0.01 µM came to 79.9%. Further, the concentration giving a half-maximal response (EC50) in assay [2] amounted to 3.76 µM; in assay [3], 0.029 µM; in assay [4] it was 0.01 µM.
As to `O=C(Nc1cncc(-c2cc3c(-c4cc5cnccc5[nH]4)n[nH]c3cn2)c1)C1CCCCC1`, the maximum response (Emax) at 0.01 µM in assay [1] amounted to 59.4%. In addition, the values for the EC50 in assay [2], in assay [3] and in assay [4] were 1.62 µM, 0.003 µM and 0.03 µM, respectively.
With `Clc1ccc(-c2cncc3[nH]c(-c4n[nH]c5ccc(-c6cncc(CN7CCCC7)c6)nc45)nc23)s1`, the Emax at 0.01 µM in assay [1] came to 62%. Besides, the EC50 was determined as 3.33 µM in assay [2], 0.054 µM in assay [3] and 0.01 µM in assay [4].
On the same counts, the results for `CN(C)Cc1cncc(-c2ccc3[nH]nc(-c4nc5c(-c6cccc(F)c6)nccc5[nH]4)c3n2)c1` are 75.6%, 1.05 µM, 0.048 µM and 0.03 µM.
Regarding `c1csc(-c2nccc3[nH]c(-c4n[nH]c5cnc(-c6cncc(CN7CCCCC7)c6)cc45)cc23)c1`, the maximal response (Emax) at 0.01 µM in assay [1] was found to be 59%. In addition, the concentration for a half-maximal effect (EC50) in assay [2] was 3.68 µM; in assay [3], 0.031 µM; in assay [4] it was 0.01 µM.
Consider `c1ccc(CNCc2cncc(-c3ccc4[nH]nc(-c5cc6c(-c7cccs7)cncc6[nH]5)c4c3)c2)cc1`, for which the Emax at 0.01 µM in assay [1] worked out at 57.4%. The values for the concentration for a half-maximal effect (EC50) in assay [2], in assay [3] and in assay [4] were 0.578 µM, 0.063 µM and 0.01 µM, respectively.
Regarding `c1cnc2[nH]c(-c3n[nH]c4ccc(-c5cncc(CN6CCCCC6)c5)cc34)cc2c1`, the maximum response (Emax) at 0.01 µM in assay [1] stood at 50.8%. The EC50 in assay [2] was determined as 1.67 µM; in assay [3], 0.004 µM; in assay [4] it was 0.01 µM.
Turning to `CC(C)Nc1cncc(-c2ccc3[nH]nc(-c4nc5c(-c6cccnc6)nccc5[nH]4)c3n2)c1`, the Emax at 0.01 µM in assay [1] is 54.4%. Moreover, the EC50 was found to be 0.981 µM in assay [2], 0.014 µM in assay [3] and 0.01 µM in assay [4].
Consider `CC(C)CC(=O)Nc1cncc(-c2ccc3[nH]nc(-c4nc5c(-c6ccc(Cl)s6)cncc5[nH]4)c3n2)c1`, for which the Emax at 0.01 µM in assay [1] was found to be 60.6%. For the same molecule, the EC50 came to 1.48 µM in assay [2], 0.072 µM in assay [3] and 0.01 µM in assay [4].
The corresponding values for `Cc1ccncc1-c1cnc2[nH]nc(-c3nc4c(-c5cc(F)cc(CNS(C)(=O)=O)c5)nccc4[nH]3)c2c1` are 92.8%, 0.124 µM, 0.084 µM and 0.01 µM.
For the molecule `c1cncc(-c2ccc3[nH]nc(-c4nc5cnccc5[nH]4)c3n2)c1`, the Emax at 0.01 µM in assay [1] worked out at 54.8%. The EC50 was over 10 µM in assay [2], 0.097 µM in assay [3] and 0.03 µM in assay [4].
For the molecule `CN(C)Cc1cncc(-c2ccc3[nH]nc(-c4cc5c(-c6cccc(F)c6)cncc5[nH]4)c3c2)c1`, the Emax at 0.01 µM in assay [1] was found to be 193%. Also, the EC50 in assay [2] is 1.28 µM; in assay [3], 0.043 µM; in assay [4], 0.01 µM.
Regarding `CC(C)(C)CC(=O)Nc1cncc(-c2ccc3[nH]nc(-c4nc5ccncc5[nH]4)c3n2)c1`, in assay [1], the maximum response (Emax) at 0.01 µM came to 54.1%. For the same molecule, the half-maximal effective concentration (EC50) in assay [2] was over 10 µM; in assay [3], 0.021 µM; in assay [4], 0.01 µM.
On the same counts, the results for `c1ccc2[nH]c(-c3n[nH]c4ncc(-c5cncc(CN6CCCC6)c5)cc34)cc2c1` are 97.6%, 1.41 µM, 0.056 µM and 0.01 µM.
The corresponding values for `O=C(Nc1cncc(-c2ccc3[nH]nc(-c4nc5c(-c6ccccc6F)ccnc5[nH]4)c3n2)c1)C(F)(F)F` are 74%, over 10 µM, 0.086 µM and 0.01 µM.
As to `O=C(Nc1cncc(-c2cnc3[nH]nc(-c4cc5c(-c6ccccc6F)cncc5[nH]4)c3c2)c1)C1CC1`, the maximal effect (Emax) at 0.01 µM in assay [1] was found to be 52.1%. Moreover, the half-maximal effective concentration (EC50) in assay [2] came to 0.39 µM; in assay [3], 0.048 µM; in assay [4], 0.01 µM.
As to `CC(C)Nc1cncc(-c2ccc3[nH]nc(-c4cc5c(-c6cccnc6)cccc5[nH]4)c3c2)c1`, the maximal effect (Emax) at 0.01 µM in assay [1] turned out to be 226%. In addition, the EC50 in assay [2] is 0.1 µM; in assay [3] it was 0.083 µM; in assay [4], 0.01 µM.
With `CCCCC(=O)Nc1cncc(-c2ccc3[nH]nc(-c4nc5c(-c6cc(F)cc(NCCN(C)C)c6)ccnc5[nH]4)c3n2)c1`, the Emax at 0.01 µM in assay [1] was determined as 71.4%. In addition, the concentration giving a half-maximal response (EC50) in assay [2] was over 10 µM; in assay [3], 0.018 µM; in assay [4] it was 0.01 µM.
On the same counts, the results for `CC(C)Oc1ccc(NC(=O)c2n[nH]c3ccc(-c4cncc(CN5CCCCC5)c4)cc23)cn1` are 51.9%, 0.041 µM, 0.017 µM and 0.01 µM.
The corresponding values for `CCCCC(=O)Nc1cncc(-c2ccc3[nH]nc(-c4nc5c(-c6cc(F)cc(NCCN(C)C)c6)cncc5[nH]4)c3n2)c1` are 64.7%, over 10 µM, 0.055 µM and 0.01 µM.
Take `O=C(Nc1cncc(-c2ccc3[nH]nc(-c4cc5c(-c6cccnc6)cncc5[nH]4)c3c2)c1)c1ccccc1`: in assay [1], the Emax at 0.01 µM turned out to be 68.5%. Further, the EC50 is over 10 µM in assay [2], 0.035 µM in assay [3] and 0.01 µM in assay [4].
As for `O=C(Nc1cncc(-c2ccc3[nH]nc(-c4nc5c(-c6ccc(Cl)s6)cncc5[nH]4)c3n2)c1)C1CCC1`, the Emax at 0.01 µM in assay [1] amounted to 67.9%. Further, the results for the EC50 in assay [2], in assay [3] and in assay [4] were 0.8 µM, 0.072 µM and 0.03 µM, respectively.
